# Read-outs that look alike come from different tables or passages of the source.
# Assays:
# BRG-1 = BRG-1 (Homo sapiens, UniProt P51532); assay: ATPase catalytic activity assay of BRG-1 (ADP-Glo); assay type: biochemical; conditions: ATPase catalytic activity, ADP-Glo; for IC50: read-out: BRG1 IC50 (μM)*; for Emax: read-out: BRG1 Max % Inhibition
# Summary of the method: (§1)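 Two room-temperature incubations follow the reaction: 40 min to eliminate unused ATP, then 60 min to turn ADP into ATP driving luciferase light output. Activity is read as luminescence proportional to ADP formed.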
# BRM = BRM (Homo sapiens, UniProt P51531); assay: ATPase catalytic activity assay of BRM (ADP-Glo); assay type: biochemical; conditions: for IC50: read-out: BRM IC50 (μM)*
# Sequence of BRM (P51531 whole entry): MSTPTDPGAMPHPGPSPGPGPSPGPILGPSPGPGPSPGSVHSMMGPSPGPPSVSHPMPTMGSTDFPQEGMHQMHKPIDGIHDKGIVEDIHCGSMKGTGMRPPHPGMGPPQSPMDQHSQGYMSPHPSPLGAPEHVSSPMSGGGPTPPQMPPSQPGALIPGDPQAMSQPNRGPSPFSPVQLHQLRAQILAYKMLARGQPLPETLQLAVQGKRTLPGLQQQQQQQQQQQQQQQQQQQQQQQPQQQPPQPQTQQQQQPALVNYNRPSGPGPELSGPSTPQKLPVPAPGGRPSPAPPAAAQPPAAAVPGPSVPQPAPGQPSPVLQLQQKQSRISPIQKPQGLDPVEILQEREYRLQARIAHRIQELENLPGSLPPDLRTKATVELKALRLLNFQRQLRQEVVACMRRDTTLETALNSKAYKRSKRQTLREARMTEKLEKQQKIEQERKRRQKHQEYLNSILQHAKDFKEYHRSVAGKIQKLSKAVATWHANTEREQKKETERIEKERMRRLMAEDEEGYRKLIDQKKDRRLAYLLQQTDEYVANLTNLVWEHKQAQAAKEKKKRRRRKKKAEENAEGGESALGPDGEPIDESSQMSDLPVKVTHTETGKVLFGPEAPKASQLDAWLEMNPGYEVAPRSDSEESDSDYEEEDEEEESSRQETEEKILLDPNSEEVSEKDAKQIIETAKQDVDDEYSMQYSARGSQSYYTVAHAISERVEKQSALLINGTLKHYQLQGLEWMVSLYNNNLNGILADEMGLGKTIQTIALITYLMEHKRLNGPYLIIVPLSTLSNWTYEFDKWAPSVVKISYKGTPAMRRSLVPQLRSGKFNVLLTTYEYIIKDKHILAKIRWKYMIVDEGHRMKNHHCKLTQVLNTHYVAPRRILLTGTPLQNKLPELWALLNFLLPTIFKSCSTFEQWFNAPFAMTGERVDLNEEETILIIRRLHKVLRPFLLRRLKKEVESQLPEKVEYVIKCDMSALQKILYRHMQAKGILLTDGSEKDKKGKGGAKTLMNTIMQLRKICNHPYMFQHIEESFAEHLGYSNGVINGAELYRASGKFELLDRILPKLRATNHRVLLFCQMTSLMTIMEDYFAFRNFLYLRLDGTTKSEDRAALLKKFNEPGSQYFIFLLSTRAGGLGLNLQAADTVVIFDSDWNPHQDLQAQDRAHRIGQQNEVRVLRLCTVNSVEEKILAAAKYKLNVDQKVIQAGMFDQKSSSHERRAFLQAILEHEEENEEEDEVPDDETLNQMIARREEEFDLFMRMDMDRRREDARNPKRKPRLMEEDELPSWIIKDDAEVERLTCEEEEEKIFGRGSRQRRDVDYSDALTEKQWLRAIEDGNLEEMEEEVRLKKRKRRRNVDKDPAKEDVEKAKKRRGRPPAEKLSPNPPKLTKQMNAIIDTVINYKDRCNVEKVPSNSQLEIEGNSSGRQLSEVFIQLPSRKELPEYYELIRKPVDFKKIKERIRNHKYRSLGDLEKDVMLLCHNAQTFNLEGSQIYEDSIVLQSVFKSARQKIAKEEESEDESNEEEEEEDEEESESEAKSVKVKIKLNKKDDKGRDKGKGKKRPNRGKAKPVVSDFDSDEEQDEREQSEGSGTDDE
# Summary of the method: as §1
# Sequence of BRG-1 (P51532 whole entry): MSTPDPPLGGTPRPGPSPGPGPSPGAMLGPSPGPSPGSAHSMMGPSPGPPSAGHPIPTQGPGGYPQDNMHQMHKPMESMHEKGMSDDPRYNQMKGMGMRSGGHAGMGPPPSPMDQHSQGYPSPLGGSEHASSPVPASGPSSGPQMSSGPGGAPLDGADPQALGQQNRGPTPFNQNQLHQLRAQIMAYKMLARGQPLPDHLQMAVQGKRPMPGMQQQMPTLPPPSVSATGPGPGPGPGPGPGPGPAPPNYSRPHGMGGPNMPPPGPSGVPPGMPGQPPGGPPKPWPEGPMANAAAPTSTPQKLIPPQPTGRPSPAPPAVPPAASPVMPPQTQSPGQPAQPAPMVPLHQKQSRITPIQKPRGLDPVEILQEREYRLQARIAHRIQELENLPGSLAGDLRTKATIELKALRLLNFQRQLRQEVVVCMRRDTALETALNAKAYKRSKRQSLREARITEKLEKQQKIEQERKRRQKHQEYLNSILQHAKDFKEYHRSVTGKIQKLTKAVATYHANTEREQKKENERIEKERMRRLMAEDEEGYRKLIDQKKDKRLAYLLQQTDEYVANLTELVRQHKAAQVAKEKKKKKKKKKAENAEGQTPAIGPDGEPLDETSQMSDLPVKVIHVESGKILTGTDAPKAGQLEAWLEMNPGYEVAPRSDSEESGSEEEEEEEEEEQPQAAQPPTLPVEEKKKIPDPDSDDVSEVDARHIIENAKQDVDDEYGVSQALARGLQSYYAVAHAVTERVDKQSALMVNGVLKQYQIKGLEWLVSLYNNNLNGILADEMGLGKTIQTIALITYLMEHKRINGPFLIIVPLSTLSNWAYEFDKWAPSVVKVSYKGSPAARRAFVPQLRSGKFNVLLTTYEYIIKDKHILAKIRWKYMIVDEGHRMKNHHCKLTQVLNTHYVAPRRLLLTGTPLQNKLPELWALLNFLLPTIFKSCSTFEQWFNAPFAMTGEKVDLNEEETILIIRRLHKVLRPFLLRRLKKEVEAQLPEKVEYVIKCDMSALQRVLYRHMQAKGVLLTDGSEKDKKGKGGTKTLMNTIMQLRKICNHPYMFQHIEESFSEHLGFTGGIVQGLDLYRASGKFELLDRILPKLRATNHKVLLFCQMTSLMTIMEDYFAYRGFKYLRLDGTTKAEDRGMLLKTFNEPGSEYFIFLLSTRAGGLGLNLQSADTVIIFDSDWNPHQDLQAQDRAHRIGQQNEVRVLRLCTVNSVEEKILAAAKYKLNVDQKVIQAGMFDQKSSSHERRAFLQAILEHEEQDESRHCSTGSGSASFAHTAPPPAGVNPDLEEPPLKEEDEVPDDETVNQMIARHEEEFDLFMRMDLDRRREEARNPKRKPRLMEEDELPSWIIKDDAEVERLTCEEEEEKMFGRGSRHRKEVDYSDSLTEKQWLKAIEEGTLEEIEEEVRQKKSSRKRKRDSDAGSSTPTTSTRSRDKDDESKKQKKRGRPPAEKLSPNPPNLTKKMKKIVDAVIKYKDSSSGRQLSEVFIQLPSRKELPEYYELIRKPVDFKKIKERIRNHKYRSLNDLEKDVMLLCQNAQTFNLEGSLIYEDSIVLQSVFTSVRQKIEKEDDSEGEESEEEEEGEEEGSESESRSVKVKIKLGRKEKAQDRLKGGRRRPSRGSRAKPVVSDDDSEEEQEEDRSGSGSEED
Structure (SMILES),IC50 (BRG-1) [µM],Emax (BRG-1) [%],BRM Max % Inhibition (BRM) [%],IC50 (BRM) [µM],"IC50 (BRG-1; 30 nM BRG-1, 400 μM ATP) [µM]","Emax (BRG-1; 30 nM BRG-1, 400 μM ATP) [%]","BRM Max % Inhibition (BRM; 30 nM BRM, 400 μM ATP) [%]","IC50 (BRM; 30 nM BRM, 400 μM ATP) [µM]"
"CC(C)S(=O)(=O)c1cccc(C(=O)NCC(=O)Nc2nc(-c3cccc(-c4cccc(C#N)n4)n3)cs2)c1 [Compound 118, N-[2-[[4-[6-(6-cyano-2-pyridyl)-2-pyridyl]thiazol-2-yl]amino]-2-oxo-ethyl]-3-isopropylsulfonyl-benzamide]",> 5,< 30,>70,0.1 to 1,,,,
"CC(C)(CN)c1cccc(C(=O)NCC(=O)Nc2nc(-c3cccc(-c4cc(C#N)cc(CO)c4)c3)cs2)c1 [Compound 52, 3-(1-amino-2-methylpropan-2-yl)-N-(2-((4-(3′-cyano-5′-(hydroxymethyl)-[1,1′-biphenyl]-3-yl)thiazol-2-yl)amino)-2-oxoethyl)benzamide]",1 to 5,> 70,>80,0.1 to 1,,,,
"Cc1cc(-c2cccc(-c3csc(NC(=O)CNC(=O)c4ccc5c(c4)[C@](C)(CO)CCC5)n3)n2)ncn1 [Compound 208, (R)-8-(hydroxymethyl)-8-methyl-N-(2-((4-(6-(6-methylpyrimidin-4-yl)pyridin-2-yl)thiazol-2-yl)amino)-2-oxoethyl)-5,6,7,8-tetrahydronaphthalene-2-carboxamide]",1 to 5,> 60,>95,0.1 to 1,,,,
"COc1cccc(-c2csc(NC(=O)CNC(=O)c3ccc4c(c3)[C@](C)(C#N)COC4)n2)c1 [Compound 401, (R)-4-cyano-N-(2-((4-(3-methoxyphenyl)thiazol-2-yl)amino)-2-oxoethyl)-4-methylisochromane-6-carboxamide]",0.1 to 1,> 95,>95,< 0.1,,,,
"CC(C)S(=O)(=O)c1cccc(C(=O)NCC(=O)Nc2nc(-c3cccc(-c4cc(C#N)cc(CO)c4)c3)cs2)c1 [Compound 23, N-(2-((4-(3′-cyano-5′-(hydroxymethyl)-[1,1′-biphenyl]-3-yl)thiazol-2-yl)amino)-2-oxoethyl)-3-(isopropylsulfonyl)benzamide]",0.1 to 1,> 80,>90,0.1 to 1,,,,
"Cc1cc(C(=O)NCC(=O)Nc2nc(-c3cccc(-c4ccncc4)c3)cs2)cc(C(C)(C)C#N)c1C [Compound 75, 3-(2-cyanopropan-2-yl)-4,5-dimethyl-N-(2-oxo-2-((4-(3-(pyridin-4-yl)phenyl)thiazol-2-yl)amino)ethyl)benzamide]",> 5,< 30,>80,0.1 to 1,,,,
"C[C@@H]1CN(c2cccc(-c3csc(NC(=O)CNC(=O)c4ccc5c(c4)C(C)(C#N)CO5)n3)c2)C[C@H](C)O1 (stereo in doubt) [Compound 417, (R)-3-cyano-N-(2-((4-(3-((cis)-2,6-dimethylmorpholino)phenyl)thiazol-2-yl)amino)-2-oxoethyl)-3-methyl-2,3-dihydrobenzofuran-5-carboxamide]",,,,,0.1 to 1,> 95,>95,< 0.1
"COc1cccc(-c2csc(NC(=O)CNC(=O)c3ccc4c(c3)[C@](C)(F)CCOC4)n2)c1 [Compound 279, (R)-5-fluoro-N-(2-((4-(3-methoxyphenyl)thiazol-2-yl)amino)-2-oxoethyl)-5-methyl-1,3,4,5-tetrahydrobenzo[c]oxepine-7-carboxamide]",0.1 to 1,> 90,>90,0.1 to 1,,,,
"C[C@@H]1CN(c2cccc(-c3csc(NC(=O)CNC(=O)c4cccc(C5(CF)COC5)c4)n3)c2)C[C@H](C)O1 [Compound 149, N-(2-((4-(3-((cis)-2,6-dimethylmorpholino)phenyl)thiazol-2-yl)amino)-2-oxoethyl)-3-(3-(fluoromethyl)oxetan-3-yl)benzamide]",1 to 5,> 70,>95,0.1 to 1,,,,
"CC(C)(C)c1cccc(C(=O)NCC(=O)Nc2nc(-c3cccc(N4CCC4)c3)cs2)c1 [Compound 196, N-(2-((4-(3-(azetidin-1-yl)phenyl)thiazol-2-yl)amino)-2-oxoethyl)-3-(tert-butyl)benzamide]",1 to 5,> 60,>90,0.1 to 1,,,,
C[C@H](N)C(C)(C)c1cccc(C(=O)NCC(=O)Nc2nc(-c3cccc(-c4ccncc4)c3)cs2)c1 [Compound 91],> 5,> 30,>50,1 to 5,,,,

# Next, values leading:
IC50 (BRG-1) [µM],Emax (BRG-1) [%],BRM Max % Inhibition (BRM) [%],IC50 (BRM) [µM],"IC50 (BRG-1; 30 nM BRG-1, 400 μM ATP) [µM]","Emax (BRG-1; 30 nM BRG-1, 400 μM ATP) [%]","BRM Max % Inhibition (BRM; 30 nM BRM, 400 μM ATP) [%]","IC50 (BRM; 30 nM BRM, 400 μM ATP) [µM]",Structure (SMILES)
1 to 5,> 70,>90,0.1 to 1,,,,,"C[C@@H]1CN(c2cccc(-c3csc(NC(=O)CNC(=O)c4ccc5c(c4)C(C)(O)CCO5)n3)c2)C[C@H](C)O1 (stereo partly drawn) [Compound 136, N-[2-[[4-[3-[(cis)-2,6-dimethylmorpholin-4-yl]phenyl]thiazol-2-yl]amino]-2-oxo-ethyl]-4-hydroxy-4-methylchromane-6-carboxamide]"
> 5,> 90,>90,0.1 to 1,,,,,"C[C@@H]1CN(c2cccc(-c3csc(NC(=O)CNC(=O)c4cccc(C5(F)CC6(COC6)C5)c4)n3)n2)C[C@H](C)O1 [Compound 318, N-(2-((4-(6-((cis)-2,6-dimethylmorpholino)pyridin-2-yl)thiazol-2-yl)amino)-2-oxoethyl)-3-(6-fluoro-2-oxaspiro[3.3]heptan-6-yl)benzamide]"
0.1 to 1,> 95,>95,< 0.1,,,,,"C[C@@H]1CN(c2cccc(-c3csc(NC(=O)CNC(=O)c4ccc5c(c4)C(C)(CO)COC5)n3)c2)C[C@H](C)O1 (stereo in doubt) [Compound 372, (R)-N-(2-((4-(3-((cis)-2,6-dimethylmorpholino)phenyl)thiazol-2-yl)amino)-2-oxoethyl)-4-(hydroxymethyl)-4-methylisochromane-6-carboxamide]"
< 0.1,> 95,>95,< 0.1,,,,,"C[C@@H]1CN(c2cc(-c3csc(NC(=O)CNC(=O)c4ccc5c(c4)[C@](C)(C#N)COC5)n3)ccn2)C[C@H](C)O1 [Compound 347, (R)-4-cyano-N-(2-((4-(2-((cis)-2,6-dimethylmorpholino)pyridin-4-yl)thiazol-2-yl)amino)-2-oxoethyl)-4-methylisochromane-6-carboxamide]"
0.1 to 1,> 95,>95,< 0.1,,,,,"C[C@@H]1CN(c2cccc(-c3csc(NC(=O)CNC(=O)c4ccc5c(c4)[C@@H](C)COC5)n3)n2)C[C@H](C)O1 [Compound 320, (R)-N-(2-((4-(6-((cis)-2,6-dimethylmorpholino)pyridin-2-yl)thiazol-2-yl)amino)-2-oxoethyl)-4-methylisochromane-6-carboxamide]"
> 5,> 65,>65,0.1 to 1,,,,,"C[C@@H]1CN(c2cccc(-c3csc(NC(=O)CNC(=O)c4ccc5c(c4)CCCO5)n3)n2)C[C@H](C)O1 [Compound 370, N-(2-((4-(6-((cis)-2,6-dimethylmorpholino)pyridin-2-yl)thiazol-2-yl)amino)-2-oxoethyl)chromane-6-carboxamide]"

# Reference: patent US12685735B2 (Foghorn Therapeutics Inc., priority 2020, dated 2026)
